Where two headings read alike, the source gives them in different places.
Experiments:
[1] = tested on: heart; experiment: Intrinsic β-mimetic activity on the heart (increased heart rate), reserpinized cat; type: in vivo; settings: i.v.
Procedure: (§1) The β-receptor blocking agents of the present invention were tested as regards their biological properties. All compounds were thereby tested in anesthetized cats (males and females weighing 2.5-3.5 kg) pretreated with reserpine (5 mg/kg body weight administered intra musculary) about 16 hours before the experiments. The animals were pretreated with reserpine in order to eliminate the endogenous sympathetic control of heart rate and vascular smooth muscle tone. The cats were anaesthetized with pentobarbital (30 mg/kg body weight administered i.p.) and artifically ventilated with room air. A bilateral vagotomy was performed in the neck. Blood pressure was obtained from a cannulated carotid artery and heart rate was registered from a cardiotachometer, triggered by the electrocardiogram. (ECG) Intrinsic beta-mimetic activity on the heart was seen as increased heart rate after drug administration. The test compounds were given intravenously in logarithmically increasing doses. The values obtained were plotted on dose-response curves, from which affinity values (ED50) were estimated. At the end of each experiment high doses of isoprenaline were given in order to obtain the maximal heart rate response.

[2] = target: T1, cardial β-receptors (Felis catus, UniProt Q9TST6); experiment: Block of isoprenaline, heart rate (HR), reserpinized anesthetized cat; type: in vivo; settings: iv, read-out: Block of isopren ED50 HR
T1 construct: from tissue; host or cells: heart in situ of anesthetized, reserpinized, vagotomized cat (in vivo, heart rate)
Procedure: as §1

[3] = target: T2, vascular β-receptors (Felis catus, UniProt Q9TST5); experiment: Block of isoprenaline, PR (vascular), reserpinized anesthetized cat; type: in vivo; settings: iv, read-out: Block of isopren ED50 PR
T2 construct: from tissue; host or cells: vascular smooth muscle in situ of anesthetized, reserpinized cat (in vivo, isoprenaline vasodilation)
Procedure: as §1

[4] = Effect on arterial blood pressure in conscious dogs; type: in vivo, Beagle dogs; settings: conscious dog, after 1.5 mg/kg i.v.; for ΔBP Supino: supine
Procedure: The compounds were also tested on conscious dogs. Beagle dogs were trained to be lying quietly and to be lifted to an erect position by placing their forelegs on a table for 2 minutes. Arterial blood pressure was registered via a blood pressure transducer attached to the dog at the heart level. Heart rate was triggered from the ECG. All dogs were pretreated with methylscopolamine to avoid vagal influences. Recordings were taken before and 15 and 75 min after administration of the test compound, first in supine position for 2 min and then in the erect position for 2 minutes. The test compounds were given in increasing doses with 2 hours intervals.

[5] = reserpinized cat, i.v., heart rate

T2 sequence (Q9TST5 whole entry): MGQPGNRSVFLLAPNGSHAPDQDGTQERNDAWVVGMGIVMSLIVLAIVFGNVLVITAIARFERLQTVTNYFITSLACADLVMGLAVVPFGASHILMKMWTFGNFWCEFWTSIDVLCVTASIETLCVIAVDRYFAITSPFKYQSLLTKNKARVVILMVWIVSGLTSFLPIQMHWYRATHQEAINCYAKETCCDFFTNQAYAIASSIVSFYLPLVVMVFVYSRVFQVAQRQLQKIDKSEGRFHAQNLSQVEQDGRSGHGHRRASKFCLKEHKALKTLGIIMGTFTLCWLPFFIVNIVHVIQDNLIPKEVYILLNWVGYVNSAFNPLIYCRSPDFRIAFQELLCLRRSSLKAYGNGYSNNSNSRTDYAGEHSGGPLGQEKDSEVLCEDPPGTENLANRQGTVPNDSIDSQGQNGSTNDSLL
T1 sequence (Q9TST6 whole entry): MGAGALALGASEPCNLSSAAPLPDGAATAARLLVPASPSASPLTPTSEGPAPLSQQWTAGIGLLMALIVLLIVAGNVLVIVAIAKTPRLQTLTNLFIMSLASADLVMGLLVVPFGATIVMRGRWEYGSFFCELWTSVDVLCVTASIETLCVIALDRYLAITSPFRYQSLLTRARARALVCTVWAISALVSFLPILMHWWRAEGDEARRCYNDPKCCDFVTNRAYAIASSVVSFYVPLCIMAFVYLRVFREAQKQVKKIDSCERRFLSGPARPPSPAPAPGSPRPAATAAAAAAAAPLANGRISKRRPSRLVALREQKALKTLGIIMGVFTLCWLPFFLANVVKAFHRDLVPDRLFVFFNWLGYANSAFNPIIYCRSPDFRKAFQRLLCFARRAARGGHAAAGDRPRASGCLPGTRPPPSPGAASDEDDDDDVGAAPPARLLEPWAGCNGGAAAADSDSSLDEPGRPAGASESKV

Row | SMILES | ED50 ([3]; reserpinized cat, i.v., PR) [mg/kg] | Intrinsic activity [1] | ED50 [2, 5] [mg/kg] | ΔBP Erect [4] [mm Hg] | ΔBP Supino [4] | ED50 ([2]; cat) [mg/kg] | ED50 ([3]; cat) [mg/kg]
1 | Cc1ccc(Cl)c(OCC(O)CNCCOc2ccc(C(N)=O)cc2)c1 (stereo not drawn) [Ex 2, 1-[2-(4-carbamylphenoxy)ethylamino]-3-(2-chloro-5-methylphenoxy)propanol-2] | 4.6 | 0 beats/min | 0.3 | – | – | – | –
2 | COCCc1ccc(OCC(O)CNCCOc2ccc(C(N)=O)cc2)cc1 (stereo not drawn) [Ex 3, 1-[2-(4-carbamylphenoxy)ethylamino]-3-(2-methoxyethyl)phenoxypropanol-2] | 8.5 | 0 beats/min | 1.1 | – | – | – | –
3 | C=CCc1ccccc1OCC(O)CNC(C)COc1ccc(C(N)=O)cc1 (stereo not drawn) [Ex 5, 1-[1-methyl-2-(4-carbamylphenoxy)ethylamino]-3-(2-allylphenoxy)propanol-2] | 0.2 | +15 beats/min | 0.05 | -42 | -43 mm Hg | – | –
4 | C=CCc1ccccc1OCC(O)CNC(C)COc1ccccc1C (stereo not drawn) [Ex 6, 1-[1-methyl-2-(2-methylphenoxy)-ethylamino]-3-(2-allylphenoxy)propanol-2] | 0.5 | +24 beats/min | 0.5 | – | – | – | –
5 | COCCc1ccc(OCC(O)CNC(C)C)cc1 (stereo not drawn) [Metroprolol, 1-isopropylamino-3-[4-(2-methoxyethyl)phenoxy]-propanol-2, reference compound] | – | 0 beats/min | – | -3 | -5 mm Hg | 0.2 | 4.7
6 | CC(=O)Nc1ccc(OCC(O)CNC(C)C)cc1 (stereo not drawn) [Practolol, 4-(2-hydroxy-3-isopropylaminopropoxy)acetanilide, reference compound] | 35 | +15 beats/min | 0.3 | – | – | – | –
7 | CC(C)NCC(O)COc1cccc2ccccc12 (stereo not drawn) [Propranolol, 1-isopropylamino-3-(1-naphtoxy)-propanol-2, reference compound] | – | 0 beats/min | – | 0 | +5 mm Hg | – | –

Now from value to molecule, other results behind:

Row | ED50 ([3]; reserpinized cat, i.v., PR) [mg/kg] | SMILES | Intrinsic activity [1] | ED50 [2, 5] [mg/kg] | ΔBP Erect [4] [mm Hg] | ΔBP Supino [4] | ED50 ([2]; cat) [mg/kg] | ED50 ([3]; cat) [mg/kg]
8 | 1.8 | C=CCc1ccccc1OCC(O)CNCCOc1ccc(C(N)=O)cc1 (stereo not drawn) [Ex 1, 1[2-(4-carbamylphenoxy)-ethylamino]-3-(2-allylphenoxy)propanol-2] | 0 beats/min | 0.3 | -45 | -28 mm Hg | – | –
9 | 2.4 | COC(=O)NCCc1ccc(OCCNCC(O)COc2ccccc2C)cc1 (stereo not drawn) [Ex 9, 1-[4-(2-(2-methoxycarbonylamino)ethyl)phenoxyethylamino]-3-(2-methylphenoxy)-propanol-2] | +40 beats/min | 0.3 | – | – | – | –
10 | 1 | NC(=O)c1ccc(OCCNCC(O)COc2ccccc2Cl)cc1 (stereo not drawn) [Ex 11, 1-[2-(4-carbamoylphenoxy)ethylamino]-3-(2-chlorophenoxy)propanol-2] | +16 beats/min | 0.05 | -20 | -28 mm Hg | – | –
11 | 1.5 | C=CCOc1ccccc1OCC(O)CNCCOc1ccc(C(N)=O)cc1 (stereo not drawn) [Ex 17] | +8 beats/min | 0.1 | -46 | -23 mm Hg | – | –
12 | 0.3 | C#CCOc1ccccc1OCC(O)CNCCOc1ccc(C(N)=O)cc1 (stereo not drawn) [Ex 18] | +13 beats/min | 0.04 | – | – | – | –
13 | < 8.5 | NC(=O)Cc1ccccc1OCC(O)CNCCOc1ccc(C(N)=O)cc1 (stereo not drawn) [Ex 19] | 0 beats/min | 1.7 | – | – | – | –
14 | < 8.5 | NC(=O)c1ccc(OCCNCC(O)COc2ccccc2OCC(=O)NCCO)cc1 (stereo not drawn) [Ex 20, 1-[2-(4-carbamylphenoxy)ethylamino]-3-[2-(ω-hydroxyethylaminocarbonylmethoxy)phenoxy]-propanol-2] | – | 0.03 | – | – | – | –

Source: patent US4165384A, “Amide substituted phenoxy propanol amines” (priority 1974, dated 1979)
